Measurements published in ChEMBL document CHEMBL3044727, “Syntheses, spectral, crystallographic, antimicrobial, and antioxidant studies of few Mannich bases” (2012).

How the values were obtained:
Format in all cases: functional
[1] = tested on: Radical scavenging activity; assay: Antioxidant activity assessed as DPPH radical scavenging activity at 100 ug
[2] = Antioxidant activity assessed as inhibition of linoleic acid peroxidation at 25 ug by FTC method
[3] = tested on: Radical scavenging activity; assay: Antioxidant activity assessed as DPPH radical scavenging activity at 50 ug
[4] = Antioxidant activity assessed as inhibition of linoleic acid peroxidation at 50 ug by FTC method
[5] = tested on: Radical scavenging activity; assay: Antioxidant activity assessed as DPPH radical scavenging activity at 25 ug
[6] = Antioxidant activity assessed as inhibition of linoleic acid peroxidation at 100 ug by FTC method
[7] = Antioxidant activity assessed as inhibition of linoleic acid peroxidation at 125 ug by FTC method
[8] = tested on: Radical scavenging activity; assay: Antioxidant activity assessed as DPPH radical scavenging activity at 125 ug
[9] = tested on: Radical scavenging activity; assay: Antioxidant activity assessed as DPPH radical scavenging activity at 75 ug
[10] = Antioxidant activity assessed as inhibition of linoleic acid peroxidation at 75 ug by FTC method
[11] = tested on: Salmonella typhi; assay: Antimicrobial activity against Salmonella enterica subsp. enterica serovar Typhi MTCC 3917 at 40 ug after 24 hr by streak plate method; settings: MTCC 3917, 24 h, read-out: IZ
[12] = Antioxidant activity assessed as inhibition of linoleic acid peroxidation by FTC method
[13] = tested on: Bacillus subtilis; assay: Antimicrobial activity against Bacillus subtilis MTCC 4905 at 40 ug after 24 hr by streak plate method; settings: MTCC 4905, 24 h, read-out: IZ
[14] = tested on: Aspergillus fumigatus; assay: Antimicrobial activity against Aspergillus fumigatus MTCC 6594 at 60 ug after 48 hr by streak plate method; settings: MTCC 6594, 48 h, read-out: IZ
[15] = tested on: Aspergillus oryzae; assay: Antimicrobial activity against Aspergillus oryzae MTCC 3782 at 40 ug after 48 hr by streak plate method; settings: MTCC 3782, 48 h, read-out: IZ
[16] = tested on: Aspergillus oryzae; assay: Antimicrobial activity against Aspergillus oryzae MTCC 3782 at 60 ug after 48 hr by streak plate method; settings: MTCC 3782, 48 h, read-out: IZ
[17] = tested on: Escherichia coli; assay: Antimicrobial activity against Escherichia coli MTCC 3261 at 60 ug after 24 hr by streak plate method; settings: MTCC 3261, 24 h, read-out: IZ
[18] = tested on: Escherichia coli; assay: Antimicrobial activity against Escherichia coli MTCC 3261 at 40 ug after 24 hr by streak plate method; settings: MTCC 3261, 24 h, read-out: IZ
[19] = tested on: Radical scavenging activity; assay: Antioxidant activity assessed as DPPH radical scavenging activity
[20] = tested on: Aspergillus oryzae; assay: Antimicrobial activity against Aspergillus oryzae MTCC 3782 at 20 ug after 48 hr by streak plate method; settings: MTCC 3782, 48 h, read-out: IZ
[21] = tested on: Salmonella typhi; assay: Antimicrobial activity against Salmonella enterica subsp. enterica serovar Typhi MTCC 3917 at 60 ug after 24 hr by streak plate method; settings: MTCC 3917, 24 h, read-out: IZ
[22] = tested on: Bacillus subtilis; assay: Antimicrobial activity against Bacillus subtilis MTCC 4905 at 60 ug after 24 hr by streak plate method; settings: MTCC 4905, 24 h, read-out: IZ
[23] = tested on: Salmonella typhi; assay: Antimicrobial activity against Salmonella enterica subsp. enterica serovar Typhi MTCC 3917 at 20 ug after 24 hr by streak plate method; settings: MTCC 3917, 24 h, read-out: IZ
[24] = tested on: Aspergillus fumigatus; assay: Antimicrobial activity against Aspergillus fumigatus MTCC 6594 at 40 ug after 48 hr by streak plate method; settings: MTCC 6594, 48 h, read-out: IZ
[25] = tested on: Bacillus subtilis; assay: Antimicrobial activity against Bacillus subtilis MTCC 4905 at 20 ug after 24 hr by streak plate method; settings: MTCC 4905, 24 h, read-out: IZ
[26] = tested on: Escherichia coli; assay: Antimicrobial activity against Escherichia coli MTCC 3261 at 20 ug after 24 hr by streak plate method; settings: MTCC 3261, 24 h, read-out: IZ
[27] = tested on: Aspergillus fumigatus; assay: Antimicrobial activity against Aspergillus fumigatus MTCC 6594 at 20 ug after 48 hr by streak plate method; settings: MTCC 6594, 48 h, read-out: IZ

Compound | Activity [1] [%] | inhibition [2] [%] | Activity [3] [%] | inhibition [4] [%] | Activity [5] [%] | inhibition [6] [%] | inhibition [7] [%] | Activity [8] [%] | Activity [9] [%] | inhibition [10] [%] | zone of inhibition at 40 µg/disc [11] [mm] | inhibition [12] | zone of inhibition at 40 µg/disc [13] [mm] | zone of inhibition at 60 µg/disc [14] [mm] | zone of inhibition at 40 µg/disc [15] [mm] | zone of inhibition at 60 µg/disc [16] [mm] | zone of inhibition at 60 µg/disc [17] [mm] | zone of inhibition at 40 µg/disc [18] [mm] | zone of inhibition at 60 µg/disc [21] [mm] | zone of inhibition at 60 µg/disc [22] [mm] | other results
O=C1O[C@H]([C@@H](O)CO)C(O)=C1O | 58 | 27.2 | 54 | 27 | 53 | 35 | 37 | 59 | 57 | 31.2 | – | – | – | – | – | – | – | – | – | – | –
O=C1CCC(=O)N1C(Nc1ccccn1)c1ccccc1 (stereo unspecified) | 23 | 15 | 19 | 17 | 16 | 19 | 21 | 25 | 20 | 18 | 1 | Dose-dependent effect | 7 | 3 | 10 | 9 | 7 | 4 | 6 | 12 | Activity [19]: Dose-dependent effect; zone of inhibition at 20 µg/disc [20]: 12 mm
O=C(NC(c1ccccc1)c1cc2ccccc2cc1O)NC(c1ccccc1)c1cc2ccccc2cc1O (stereo unspecified) | 37 | 17 | 27 | 17 | 28 | 19 | 24 | 40 | 35 | 18.3 | 21 | Dose-dependent effect | 4 | 11 | 8 | 12 | 9 | 8 | 23 | 3 | zone of inhibition at 20 µg/disc [23]: 20 mm; zone of inhibition at 40 µg/disc [24]: 6 mm; Activity [19]: Dose-dependent effect; zone of inhibition at 20 µg/disc [25]: 4 mm
VITAMIN E | 50 | 23 | 47 | 26 | 45 | 29 | 33 | 51 | 49 | 27 | – | – | – | – | – | – | – | – | – | – | –
CC1(C)S[C@@H]2[C@H](NC(=O)Cc3ccccc3)C(=O)N2[C@H]1C(=O)O [PENICILLIN G] | – | – | – | – | – | – | – | – | – | – | 24 | – | 26 | – | – | – | 31 | 30 | 24 | 26 | zone of inhibition at 20 µg/disc [23]: 20 mm; zone of inhibition at 20 µg/disc [26]: 24 mm; zone of inhibition at 20 µg/disc [25]: 25 mm
O=C1CCC(=O)N1C(Nc1ccccc1)c1ccccc1 (stereo unspecified) | 18 | 16 | 14 | 17 | 9 | 20 | 22 | 25 | 17 | 19 | 6 | Dose-dependent effect | 10 | 6 | 12 | 15 | 16 | 2 | 11 | 17 | Activity [19]: Dose-dependent effect; zone of inhibition at 20 µg/disc [20]: 3 mm
Oc1cc2ccccc2cc1Cn1cccc1 | 36 | 10 | 33 | 13 | 32 | 17 | 19 | 38 | 35 | 16.2 | 22 | Dose-dependent effect | 14 | 3 | 10 | 14 | 14 | 4 | 23 | 16 | zone of inhibition at 20 µg/disc [23]: 22 mm; Activity [19]: Dose-dependent effect
O=C1CCC(=O)N1CNc1ccccn1 | 27 | 18 | 18 | 19 | 17 | 20 | 21 | 36 | 22 | 19 | – | Dose-dependent effect | 5 | 13 | – | 15 | 12 | 7 | – | 8 | zone of inhibition at 40 µg/disc [24]: 7 mm; Activity [19]: Dose-dependent effect
CN[C@@H]1[C@H](O[C@H]2[C@H](O[C@H]3[C@H](O)[C@@H](O)[C@H](N=C(N)N)[C@@H](O)[C@@H]3N=C(N)N)O[C@@H](C)[C@]2(O)C=O)O[C@@H](CO)[C@H](O)[C@H]1O [STREPTOMYCIN] | – | – | – | – | – | – | – | – | – | – | 40 | – | 33 | – | – | – | 45 | 39 | 40 | 41 | zone of inhibition at 20 µg/disc [23]: 36 mm; zone of inhibition at 20 µg/disc [26]: 31 mm; zone of inhibition at 20 µg/disc [25]: 30 mm
O=C1CCC(=O)N1CNc1ccccc1 | 20 | 12 | 14 | 15 | 10 | 19 | 20 | 23 | 18 | 16 | – | – | – | – | – | – | – | – | – | – | –
O=C1c2ccccc2C(=O)N1CNc1ccccc1 | 22 | 11 | 19 | 13 | 15 | 15 | 16 | 24 | 20 | 15.6 | 5 | Dose-dependent effect | 9 | 2 | 7 | 4 | 8 | 3 | 5 | 14 | zone of inhibition at 20 µg/disc [23]: 3 mm; Activity [19]: Dose-dependent effect; zone of inhibition at 20 µg/disc [20]: 7 mm
C[C@@H]1[C@H](O)[C@@H](C)/C=C/C=C/C=C/C=C/C=C/C=C/C=C/[C@H](O[C@@H]2O[C@H](C)[C@@H](O)[C@H](N)[C@@H]2O)C[C@@H]2O[C@](O)(C[C@@H](O)C[C@@H](O)[C@H](O)CC[C@@H](O)C[C@@H](O)CC(=O)O[C@H]1C)C[C@H](O)[C@H]2C(=O)O [AMPHOTERICIN B] | – | – | – | – | – | – | – | – | – | – | – | – | – | 30 | 12 | 16 | – | – | – | – | zone of inhibition at 40 µg/disc [24]: 24 mm; zone of inhibition at 20 µg/disc [27]: 26 mm; zone of inhibition at 20 µg/disc [20]: 12 mm
